Reference: patent US11339128B2 (Firmenich Incorporated, priority 2014, dated 2022)

Molecular target: T1, T1R2/T1R3 taste receptor (Homo sapiens, UniProt Q7RTX0+Q8TE23)
T1 sequence (Q8TE23 20-839): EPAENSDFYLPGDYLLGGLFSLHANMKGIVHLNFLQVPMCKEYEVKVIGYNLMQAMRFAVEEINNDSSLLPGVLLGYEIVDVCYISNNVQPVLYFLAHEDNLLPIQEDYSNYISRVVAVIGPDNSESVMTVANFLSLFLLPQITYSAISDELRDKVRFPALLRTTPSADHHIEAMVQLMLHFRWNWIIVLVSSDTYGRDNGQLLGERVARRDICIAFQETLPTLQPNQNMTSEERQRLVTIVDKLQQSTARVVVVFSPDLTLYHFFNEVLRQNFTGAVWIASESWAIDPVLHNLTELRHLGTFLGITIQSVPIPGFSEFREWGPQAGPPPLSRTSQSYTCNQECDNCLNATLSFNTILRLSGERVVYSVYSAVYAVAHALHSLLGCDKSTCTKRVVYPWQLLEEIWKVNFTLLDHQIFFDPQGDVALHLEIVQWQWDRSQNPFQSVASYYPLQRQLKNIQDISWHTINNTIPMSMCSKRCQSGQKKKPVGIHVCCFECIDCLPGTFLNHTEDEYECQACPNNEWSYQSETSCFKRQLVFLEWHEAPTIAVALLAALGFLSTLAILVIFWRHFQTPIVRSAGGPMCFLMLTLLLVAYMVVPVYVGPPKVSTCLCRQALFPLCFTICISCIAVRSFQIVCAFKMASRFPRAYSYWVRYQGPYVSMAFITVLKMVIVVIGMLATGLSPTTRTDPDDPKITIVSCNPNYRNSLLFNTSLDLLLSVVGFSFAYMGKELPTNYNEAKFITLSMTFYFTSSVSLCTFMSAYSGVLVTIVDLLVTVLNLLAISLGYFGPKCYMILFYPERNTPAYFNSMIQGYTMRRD
T1 sequence (Q7RTX0 21-852): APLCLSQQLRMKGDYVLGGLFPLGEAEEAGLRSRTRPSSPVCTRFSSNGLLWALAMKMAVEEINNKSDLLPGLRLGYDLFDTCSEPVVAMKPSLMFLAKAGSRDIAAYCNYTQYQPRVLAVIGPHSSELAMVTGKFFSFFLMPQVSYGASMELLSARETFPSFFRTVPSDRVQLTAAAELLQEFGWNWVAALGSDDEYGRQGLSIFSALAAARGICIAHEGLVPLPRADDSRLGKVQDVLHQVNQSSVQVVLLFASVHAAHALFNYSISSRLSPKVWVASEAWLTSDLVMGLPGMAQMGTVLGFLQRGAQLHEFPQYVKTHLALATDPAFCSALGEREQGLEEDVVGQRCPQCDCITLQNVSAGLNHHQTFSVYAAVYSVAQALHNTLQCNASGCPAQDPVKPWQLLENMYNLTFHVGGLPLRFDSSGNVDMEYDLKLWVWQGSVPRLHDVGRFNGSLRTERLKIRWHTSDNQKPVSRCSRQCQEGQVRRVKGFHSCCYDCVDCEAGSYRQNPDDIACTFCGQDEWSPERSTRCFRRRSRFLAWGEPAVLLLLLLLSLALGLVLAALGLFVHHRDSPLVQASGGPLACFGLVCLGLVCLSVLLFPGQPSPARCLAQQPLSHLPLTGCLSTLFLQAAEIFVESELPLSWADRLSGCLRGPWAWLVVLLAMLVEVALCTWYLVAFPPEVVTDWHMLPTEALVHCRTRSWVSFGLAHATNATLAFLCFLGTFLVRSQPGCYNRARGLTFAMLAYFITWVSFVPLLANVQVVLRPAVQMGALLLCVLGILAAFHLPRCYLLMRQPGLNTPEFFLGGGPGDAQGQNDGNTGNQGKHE
Experiment: Receptor-based assay: sweetener EC50 enhancement ratio with and without test compound
Assay type: cell-based
Conditions: for Sucrose Enhancement EC50 Ratio: sweetener sucrose; for Sucralose Enhancement EC50 Ratio: sweetener sucralose
Procedure: Potencies (EC50 values) for the sweeteners sucrose, sucralose, and fructose were measured against the T1R2/T1R3 taste receptor. EC50 was determined using the sweetener alone and in the presence of 1 μM, 3 μM, 10 μM, or 50 μM of test compound. EC50 ratios were calculated by the ratio of potency with and without the test compound. An “A” value indicates an enhancement ratio of greater than 1 and less than 10. A “B” value indicates an enhancement ratio from 10 to 20. A “C” value indicates an enhancement ratio greater than 20.

Row | SMILES | Sucrose Enhancement EC50 Ratio (1 μM test compound) | Sucrose Enhancement EC50 Ratio (3 μM test compound) | Sucrose Enhancement EC50 Ratio (10 μM test compound) | Fructose Enhancement EC50 Ratio (10 μM test compound, sweetener fructose) | Sucralose Enhancement EC50 Ratio (3 μM test compound)
1 | Cc1cnn(CC(=O)N[C@H]2CC[C@H](Oc3cccc4nc(C)c(C(=O)O)c(N)c34)CC2)c1 [Compound 330] | A (an enhancement ratio of greater than 1 and less than 10) | A (an enhancement ratio of greater than 1 and less than 10) | A (an enhancement ratio of greater than 1 and less than 10) |  | 
2 | CCC(CC)COCC(=O)N[C@H]1CC[C@H](Oc2cccc3nc(C)c(C(=O)O)c(N)c23)CC1 [Compound 331] | A (an enhancement ratio of greater than 1 and less than 10) | A (an enhancement ratio of greater than 1 and less than 10) | C (an enhancement ratio greater than 20) |  | 
3 | CCOCCOCC(=O)N[C@H]1CC[C@H](Oc2cccc3nc(C)c(C(=O)O)c(N)c23)CC1 [Compound 332] | A (an enhancement ratio of greater than 1 and less than 10) | B (an enhancement ratio from 10 to 20) |  |  | 
4 | Cc1nc2cccc(O[C@H]3CC[C@H](NC(=O)COCCOCc4ccccc4)CC3)c2c(N)c1C(=O)O [Compound 333] | A (an enhancement ratio of greater than 1 and less than 10) | B (an enhancement ratio from 10 to 20) |  |  | 
5 | Cc1nc2cccc(O[C@H]3CC[C@H](NC(=O)COCCO)CC3)c2c(N)c1C(=O)O [Compound 334] | A (an enhancement ratio of greater than 1 and less than 10) | A (an enhancement ratio of greater than 1 and less than 10) | C (an enhancement ratio greater than 20) | A (an enhancement ratio of greater than 1 and less than 10) | 
6 | CCCCOCC(=O)N[C@H]1CC[C@H](Oc2cccc3nc(C)c(C(=O)O)c(N)c23)CC1 [Compound 335] | B (an enhancement ratio from 10 to 20) | C (an enhancement ratio greater than 20) |  |  | C (an enhancement ratio greater than 20)
7 | COCCOCC(=O)N[C@H]1CC[C@H](Oc2cccc3nc(C)c(C(=O)O)c(N)c23)CC1 [Compound 336] | A (an enhancement ratio of greater than 1 and less than 10) | C (an enhancement ratio greater than 20) |  |  | B (an enhancement ratio from 10 to 20)
8 | Cc1nc2cccc(O[C@H]3CC[C@H](NC(=O)COCC4CCCCC4)CC3)c2c(N)c1C(=O)O [Compound 337] | A (an enhancement ratio of greater than 1 and less than 10) | C (an enhancement ratio greater than 20) |  |  | 
9 | Cc1nc2cccc(O[C@H]3CC[C@H](NC(=O)COCC4CCCC4)CC3)c2c(N)c1C(=O)O [Compound 338] | A (an enhancement ratio of greater than 1 and less than 10) |  |  |  | 
10 | Cc1nc2cccc(O[C@H]3CC[C@H](NC(=O)COCC4CCOCC4)CC3)c2c(N)c1C(=O)O [Compound 339] | A (an enhancement ratio of greater than 1 and less than 10) | B (an enhancement ratio from 10 to 20) |  |  | 
11 | Cc1nc2cccc(O[C@H]3CC[C@H](NC(=O)COCCC(C)C)CC3)c2c(N)c1C(=O)O [Compound 340] | B (an enhancement ratio from 10 to 20) | B (an enhancement ratio from 10 to 20) |  |  | A (an enhancement ratio of greater than 1 and less than 10)
